Results from a melting point compilation (Tetko et al.; mined from patent text by program, amines drawn as free bases though some values may be those of a salt).

Molecule CC(C)(C)[Si](C)(C)Oc1ccc([N+](=O)[O-])cc1 has a melting point of 36 to 38 °C. With Cc1[nH]c(C(=O)Nc2ccc3c(c2)OCCO3)c(C)c1-c1nc2ccc(C(=O)c3ccccc3)cc2[nH]1 the melting point was 145 to 147 °C. In the case of CSc1nncn1-c1ccc(N2C[C@H](CNC(C)=O)OC2=O)cc1F, the melting point is reported as 188 to 190 °C. COc1ccc(-c2cc(SC(F)(F)F)[nH]c2-c2ccc(OC)cc2)cc1 gave a melting point of 114 to 115 °C. For CN1Cc2c(F)ccc3scc(c23)S1(=O)=O, the melting point was 175 °C. Work on CCc1nc2cc(/C=C/C(=O)NO)c(F)cc2c(=O)n1CCc1ccccc1 yielded a melting point of 219 to 221 °C. Work on CC(=O)OCC1(c2ccccc2)CCC(=O)CC1 yielded a melting point of 74 to 79 °C. With CSc1c(O[C@H]2CC[C@H](NCc3ccccc3)CC2)ccc2[nH]ncc12 the melting point was 136 °C. With O=C(SCCC(=O)N1C(c2ccccc2O)CC[C@H]1C(=O)N[C@@H](Cc1ccccc1)C(=O)O)c1ccccc1 (some centres not stated) the melting point was 72 to 102 °C. O=C(c1ccccc1O)c1ccccc1Br showed a melting point of 78 °C. ONC1CCn2c1cc1ccccc12 (configuration not stated) showed a melting point of 159 to 161 °C. With COCc1cc2c(s1)CCCc1cc(=O)n(-c3ccc(C)cc3)nc1-2 the melting point was 109 to 110 °C. COc1ccc2c(c1)c(Cc1cc(=O)n(-c3ccc(Cl)c(Cl)c3)[nH]1)c(C)n2C(=O)c1ccc(Cl)cc1 gave a melting point of 123 to 125 °C. For CC(NSc1nc2ccccc2s1)c1ccccc1 (configuration not stated), the melting point was 50 to 53 °C. COC(=O)N(CC(=O)OC(C)(C)C)S(=O)(=O)c1ccc(N2CCC(NC[C@H](O)c3ccc(O)c(NS(C)(=O)=O)c3)CC2)cc1 showed a melting point of 110 to 115 °C. O=C1CCC=C1c1ccc(Cl)cc1 gave a melting point of 71 to 72 °C. CCOC(=O)C1=C(C)NN=C(C(=O)OC)C1c1cccc(Cl)c1 (configuration not stated) showed a melting point of 139 °C. In the case of O=C(c1ccccc1F)c1cc(Cl)ccc1CCCN1C(=O)c2ccccc2C1=O, the melting point is reported as 98 to 99 °C. Molecule CC(C)CCc1ccc(C#N)c(=O)[nH]1 has a melting point of 110 to 112 °C. For CCOP(=O)(CC(=O)NNc1nc2ccc(C(F)(F)F)cc2n(O)c1=O)OCC, the melting point was 193 to 196 °C. With COc1cc(C(=O)c2c(C)c(OC)c3ccc(C(=O)O)cn23)ccc1[N+](=O)[O-] the melting point was 287 °C. For COc1ccc(CNc2ncccc2C(=O)Nc2cccnc2Cl)cc1, the melting point was 122 to 124 °C. ClCc1c(Cl)ccc2cc(Cl)cnc12 gave a melting point of 129 °C. Molecule COc1cc(OC)c(C(=O)CC(=O)c2cc(OC)c(OC)cc2OC)cc1OC has a melting point of 173 to 176 °C. Molecule O=[N+]([O-])c1ccc(O)c(C(=NO)c2ccccc2)c1 has a melting point of 193 to 196 °C. CC(=O)c1ccc(S(=O)(=O)NN2CCCCC2)cc1 gave a melting point of 137 to 139 °C. With O=S(=O)(c1cccc(C(F)(F)F)c1)c1cc(Br)nc(N2CCNCC2)c1 the melting point was 160 to 162 °C. With CCCOc1c(-c2ccccc2)nn(C)c1-c1ccccc1 the melting point was 56 to 57 °C. In the case of Cc1cc(Oc2ccnc(OC(F)F)c2)nc(Oc2ccnc(OC(F)F)c2)c1, the melting point is reported as 60 to 65 °C. For CC(C)OCC1(C(F)(F)F)c2cc(C#N)ccc2Nc2ncc(C#N)cc21 (configuration not stated), the melting point was 226 to 227 °C. In the case of BrCCON=C1c2ccccc2-n2cccc21, the melting point is reported as 65 °C. OCC[C@H](O)COC(c1ccccc1)(c1ccccc1)c1ccccc1 showed a melting point of 68.8 to 70.9 °C. Work on C[C@@H](CCCCC(=O)O)NC(=O)OCc1ccccc1 yielded a melting point of 82 to 83 °C. In the case of CCN(Cc1cc(Br)ccc1NCc1ccccc1)c1ccc(C(N)=O)nn1, the melting point is reported as 160 to 162 °C. Work on CC(=O)Nc1cc(Cl)c(O)c(Cl)c1 yielded a melting point of 151 to 152 °C. Work on Cn1nnnc1SCC1NCCc2cc(OCc3ccccc3)c(OCc3ccccc3)cc21 (configuration not stated) yielded a melting point of 106 to 108 °C. Molecule COc1cc(COc2nn(-c3ccccc3)cc2/C=C2\SC(=O)NC2=O)ccc1OCc1nc(-c2ccco2)oc1C has a melting point of 252 to 253 °C. Work on NC(=O)CNC(=O)c1ccc(F)c(-c2cccc3cc(Cc4cc(F)cc(Cl)c4)sc23)c1 yielded a melting point of 159 to 160 °C. For CC(C)(C)c1ccc(C(O)CCCN2CCC(C3(O)c4ccccc4COc4ccccc43)CC2)cc1 (configuration not stated), the melting point was 135 to 137 °C. With CC(=O)CC1(C)C=NC=CN1c1ccccc1 (configuration not stated) the melting point was 67 to 68 °C. Work on C=C(C(=O)c1ccc(Cl)cc1)c1ccccc1 yielded a melting point of 42 °C. In the case of O=C(Nc1nccs1)c1c(C(F)(F)F)nc2c(C(F)(F)F)cccc2c1O, the melting point is reported as 258 °C. N#Cc1c[nH]c2cccc(OCC3CO3)c12 (configuration not stated) gave a melting point of 116 to 120 °C. CCCCC(CC)C(=O)Nc1ccc2c(/C=C/C(=O)O)cn(Cc3ccc(C(=O)NS(=O)(=O)c4ccccc4)cc3OC)c2c1 (configuration not stated) gave a melting point of 200 to 201 °C. For CCc1ccc(C(=O)Nc2ccccc2)cc1[N+](=O)[O-], the melting point was 111 to 113 °C. COc1cc(Nc2cc(-c3nnc(C)o3)ccn2)cc(C(F)(F)F)c1 showed a melting point of 241 to 242 °C. CN(C(=O)c1ccccc1)C(=O)c1nc(Cl)c(Cl)[nH]1 gave a melting point of 168 °C. For COC(=O)C=CC(=O)c1cc(F)ccc1N, the melting point was 80 to 84 °C. Work on CCCOc1ccc(S(=O)(=O)Nc2ccc3[nH]ncc3c2)cc1-c1nc2cc(N)c(N)cc2c(=O)[nH]1 yielded a melting point of 261 to 263 °C. CN1CCC(Nc2ccccc2C(=N)c2ccccc2)CC1 showed a melting point of 117 to 118 °C. Work on CCOC(=O)c1ccc2nc3cscc3c(=O)n2c1 yielded a melting point of 175 °C. With CC(=O)Oc1c(C)c(C)c2c(c1C)CCC(C)(C(=O)OCCNCc1cc(N3CCCC3)nc(N3CCCC3)n1)O2 (configuration not stated) the melting point was 69.5 to 76 °C. CCc1cc(NC(=O)N2CCN(c3cc(N4CCCC4)nc(N4CCCC4)n3)CC2)c(OC)nc1C showed a melting point of 162 to 166 °C. Molecule N#Cc1c(F)c(F)c(CO)c(F)c1F has a melting point of 50 °C. Molecule O=C(C1CC1)N1CCC(C2CCc3ccc(O)cc32)CC1 (configuration not stated) has a melting point of 75 to 82 °C. Work on Cn1nc(N2c3ccccc3C[C@H]2C(=O)N2CCCC(C)(C)C2)ccc1=O yielded a melting point of 125 to 129 °C. COc1ccccc1Oc1cccc2c1NC(=O)C2 showed a melting point of 145 to 147 °C. In the case of CN1C(=O)[C@H](NC(=O)Nc2ccc(Cl)cc2Cl)N=C(c2ccccc2)c2ccccc21, the melting point is reported as 215 to 216 °C. With N#Cc1ccc(Cn2cc(C=C3C(=O)NC(=O)NC3=O)c3ccccc32)cc1 the melting point was > 300 °C. CCc1cn(C2CC(O)C(CCC(=O)Cc3c(Cl)cccc3Cl)O2)c(=O)[nH]c1=O (configuration not stated) gave a melting point of 229 to 230 °C. CNC(=S)C1(c2ccccn2)CCCS1 (configuration not stated) showed a melting point of 131 °C. With CC(C)(c1ccc(OCCO)cc1)c1ccc(OCCO)cc1 the melting point was 110 to 111 °C. Molecule COC(=O)CCCc1cc2nc(Cl)ccc2n1S(=O)(=O)c1cccc(OC)c1 has a melting point of 90 °C. Molecule CCCCOC(=O)c1ccc(N2CCN(C)CC2)cc1 has a melting point of 118 to 120 °C. CC(C)(Oc1ccc2c(c1)CC(NCc1ccccc1)CC2)C(=O)O (configuration not stated) gave a melting point of 240 to 242 °C. FC(F)(F)c1[nH]c(-c2ccc(Cl)cc2)c(C(F)(F)F)c1Br showed a melting point of 71 to 75 °C. With O=S(=O)(O)c1cccc(Nc2ccnc3cc(Cl)ccc23)c1 the melting point was > 300 °C. O=C(NCC1CC1)c1c(NC(=O)c2cc(C(F)(F)F)nn2-c2ncccc2Cl)ccc2cn[nH]c12 gave a melting point of 240 to 242 °C. For NC(=O)NN=Cc1ccc(Cc2ccccc2)cc1, the melting point was 118 to 120 °C. Molecule CC(C)=NNc1cc2c(nn1)CCN(C(=O)c1ccc(Cl)cc1Cl)C2 has a melting point of 211 to 214 °C. In the case of CC(C)(N)c1ccc(-c2nc(Nc3ccc(F)cc3)ncc2C#N)cc1, the melting point is reported as 228 to 229 °C. In the case of Cc1ccc(-c2cn(C)cc(-c3cccc(C(F)(F)F)c3)c2=O)cc1C, the melting point is reported as 150 to 153 °C.
